Data taken from ChEMBL document CHEMBL1127528, “Synthesis and carbonic anhydrase inhibitory activity of 4-substituted 2-thiophenesulfonamides” (J Med Chem, 1994).

Experiments:
Carbonic anhydrase 2 = Carbonic anhydrase 2 (Homo sapiens, UniProt P00918)
Description: Activity against human carbonic anhydrase II

[1] = Ocular sensitization assay as susceptibility to nucleophilic attack by cysteine; format: functional

Row | SMILES | IC50 (Carbonic anhydrase 2) | Cysteine reaction [1]
1 | CCCCNC(C)c1csc(S(N)(=O)=O)c1 (stereo unspecified) | 590 nM | –
2 | CCCC/C(=N\O)c1csc(S(N)(=O)=O)c1 | 15 nM | –
3 | CC(=O)c1csc(S(N)(=O)=O)c1 | 16 nM | –
4 | CC(C)CN[C@H]1CCS(=O)(=O)c2sc(S(N)(=O)=O)cc21 | – | < 5e-05 min⁻¹
5 | CCCCCC/C(=N\OC)c1csc(S(N)(=O)=O)c1 | 4.7 nM | 5e-05 min⁻¹
6 | CCCCCCC(=O)c1csc(S(N)(=O)=O)c1 | 5 nM | 5e-05 min⁻¹
7 | CCCCC(N)c1csc(S(N)(=O)=O)c1 (stereo unspecified) | 626 nM | –
8 | CCCCCCC(O)c1csc(S(N)(=O)=O)c1 (stereo unspecified) | 13 nM | < 5e-05 min⁻¹
9 | CCCCCCC(N)c1csc(S(N)(=O)=O)c1 (stereo unspecified) | 160 nM | –
10 | CCCCC(=O)c1csc(S(N)(=O)=O)c1 | 6.3 nM | –
11 | NS(=O)(=O)c1cc(C(=O)c2ccccc2)cs1 | 6.8 nM | 5e-05 min⁻¹
12 | CCCCCC/C(=N\O)c1csc(S(N)(=O)=O)c1 | 5.8 nM | 5e-05 min⁻¹
13 | CCCCCC/C(=N\N)c1csc(S(N)(=O)=O)c1 | 2 nM | 5e-05 min⁻¹
14 | CCCCC(O[Si](C)(C)C(C)(C)C)c1csc(S(N)(=O)=O)c1 (stereo unspecified) | 200 nM | –
15 | CC(=O)Nc1nnc(S(N)(=O)=O)s1 | – | 3.5e-05 min⁻¹
